Consider 8 molecules from ChEMBL document CHEMBL1201862, “PubChem BioAssay data set” (2004).

Test systems include A498; BT-549; CCRF-CEM; COLO 205; HCC 2998; IGROV-1; KM12; M14; MCF7; MDA-N; NCI-H522; RPMI-8226; SF-268; SF-295; SK-MEL-28; SK-MEL-2; SK-MEL-5; SK-OV-3; SR.
What all share (test): NCI anticancer screen, dose series, 48 h

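Cultured in 96-well plates, cells were exposed to test compound for 48 hours across five concentrations. The concentration for 50% growth inhibition is given as GI50.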 Active and inactive are the calls of the source. Rule as the data show it: active = GI50 up to about 1.1 µM and inactive = higher.

In the case of `Cc1cc(-c2nc3ccc(F)cc3s2)ccc1NC(=O)C(N)CCCCN` (stereo unspecified), the GI50 in the assay on A498 was 11 µM (inactive); in the assay with BT-549, 14.4 µM (inactive); with CCRF-CEM, 2.71 µM (inactive); with COLO 205, 4.51 µM (inactive); with HCC 2998, 1.26 µM (inactive); in the assay on IGROV-1, 0.617 µM (active). Besides, the GI50 is 2.02 µM (inactive) with KM12; 3.29 µM (inactive) in the assay on M14; 0.0184 µM (active) in the assay with MCF7; 2.52 µM (inactive) in the assay with MDA-N; 5.9 µM (inactive) with NCI-H522; 3.31 µM (inactive) in the assay with RPMI-8226. The GI50 with SF-268 was 6.7 µM (inactive); with SF-295, 6.93 µM (inactive); in the assay on SK-MEL-28 it was 18.4 µM (inactive); with SK-MEL-2, 10.1 µM (inactive); in the assay on SK-MEL-5 it was 9.68 µM (inactive); in the assay on SK-OV-3, 13.3 µM (inactive). Also, in the assay on SR, the GI50 was 1.96 µM (inactive).
Regarding `CC1(C)CCCCCCCCCC(C)(CCCCCCCCCCCCO)C1=O` (stereo unspecified), the GI50 with A498 was 18.7 µM (inactive); in the assay on BT-549 it was 16.6 µM (inactive); in the assay on CCRF-CEM, 17.4 µM (inactive); with COLO 205, 28.6 µM (inactive); in the assay on HCC 2998, 0.655 µM (active); in the assay with IGROV-1, 19.1 µM (inactive). Further, the GI50 is 17.1 µM (inactive) in the assay on KM12; 16.8 µM (inactive) with MCF7; 18.6 µM (inactive) in the assay with MDA-N; 16.5 µM (inactive) with NCI-H522; 18.7 µM (inactive) in the assay with RPMI-8226; 17.3 µM (inactive) with SF-268. Moreover, the GI50 with SF-295 is 16.2 µM (inactive); in the assay on SK-MEL-28, 18.2 µM (inactive); in the assay on SK-MEL-2 it was 17.1 µM (inactive); in the assay with SK-MEL-5, 19.5 µM (inactive); with SK-OV-3, 18.8 µM (inactive); in the assay on SR it was 55.3 µM (inactive).
Consider `CC1(C)CNC(c2ccc3c(c2)Cc2cc(C4=NC(C)(C)CN4)ccc2-3)=N1`, for which the GI50 in the assay on A498 is 77.8 µM (inactive); in the assay on BT-549, > 100 µM (inactive); in the assay on CCRF-CEM, 48.2 µM (inactive); in the assay on COLO 205, 28.2 µM (inactive); with HCC 2998, 26.2 µM (inactive); in the assay on IGROV-1 it was > 100 µM (inactive). Moreover, the GI50 with KM12 was 28.1 µM (inactive); in the assay with M14 it was 45.1 µM (inactive); with MCF7, 23.3 µM (inactive); in the assay with MDA-N it was 39.8 µM (inactive); with NCI-H522 it was 29.9 µM (inactive); in the assay on RPMI-8226, 25.2 µM (inactive). Further, the GI50 in the assay with SF-268 was 34.6 µM (inactive); with SF-295, > 100 µM (inactive); in the assay on SK-MEL-28, 38.7 µM (inactive); in the assay on SK-MEL-2, 20.1 µM (inactive); in the assay on SK-MEL-5, 60.7 µM (inactive); in the assay with SK-OV-3, 44.5 µM (inactive). Moreover, the GI50 with SR was 32.5 µM (inactive).
For `O=Cc1ccc2c(c1)CC1(C2)Cc2ccc3c(c2C1)CCC3` (stereo unspecified), the GI50 in the assay on A498 is 23.8 µM (inactive); in the assay on BT-549, 5.05 µM (inactive); in the assay with CCRF-CEM, 5.14 µM (inactive); in the assay on COLO 205, 20.8 µM (inactive); with HCC 2998 it was 24.3 µM (inactive); in the assay on IGROV-1, 16.4 µM (inactive). For the same molecule, the GI50 with KM12 is 11.4 µM (inactive); in the assay on M14 it was 7 µM (inactive); in the assay with MCF7, 4.43 µM (inactive); in the assay on MDA-N, 2.19 µM (inactive); with NCI-H522, 34.8 µM (inactive); with RPMI-8226 it was 6.47 µM (inactive). Further, the GI50 in the assay with SF-268 is 12.9 µM (inactive); in the assay on SF-295, 5.85 µM (inactive); with SK-MEL-28 it was 12.7 µM (inactive); in the assay on SK-MEL-2, 4.02 µM (inactive); with SK-MEL-5, 4.81 µM (inactive); with SK-OV-3, 18.2 µM (inactive). The GI50 in the assay on SR was 4.42 µM (inactive).
Take `COC(=O)c1cc2c(cc1CC1Cc3cc4c(cc3C1=O)CCC4)CCC2` (stereo unspecified): the GI50 was 56 µM (inactive) in the assay on A498; 40.1 µM (inactive) in the assay with BT-549; 21.5 µM (inactive) with CCRF-CEM; 33.3 µM (inactive) in the assay on COLO 205; 43.7 µM (inactive) in the assay on HCC 2998; 97.5 µM (inactive) in the assay on IGROV-1. Further, the GI50 is 32.4 µM (inactive) in the assay on KM12; 66.8 µM (inactive) in the assay with M14; 34 µM (inactive) in the assay on MCF7; 18.2 µM (inactive) with MDA-N; 34.1 µM (inactive) with NCI-H522; 25 µM (inactive) in the assay with RPMI-8226. Also, the GI50 with SF-268 was > 100 µM (inactive); in the assay on SF-295, 30.7 µM (inactive); with SK-MEL-28, 76 µM (inactive); in the assay with SK-MEL-2 it was 36.4 µM (inactive); in the assay with SK-MEL-5, 17.6 µM (inactive); in the assay with SK-OV-3 it was 70.3 µM (inactive). Further, in the assay on SR, the GI50 is 45.4 µM (inactive).
As to `CCOC(=O)/C=C(\C(=O)OCC)n1cc(C)c(=O)n(Cc2cn(CCCCOC(C)=O)nn2)c1=O`, the GI50 in the assay on A498 is 18.9 µM (inactive); with BT-549 it was 10.5 µM (inactive); with CCRF-CEM, 1.83 µM (inactive); in the assay on COLO 205 it was 2.98 µM (inactive); with HCC 2998, 18.3 µM (inactive); in the assay with IGROV-1 it was 13.6 µM (inactive). Also, the GI50 in the assay on KM12 was 18.5 µM (inactive); in the assay on M14 it was 11.9 µM (inactive); in the assay with MCF7, 5.47 µM (inactive); with MDA-N, 20.7 µM (inactive); in the assay with NCI-H522, 1.41 µM (inactive); with RPMI-8226, 7.35 µM (inactive). Besides, the GI50 in the assay with SF-268 is 14.2 µM (inactive); in the assay with SF-295 it was 18.4 µM (inactive); in the assay with SK-MEL-28, 11.5 µM (inactive); in the assay with SK-MEL-2, 15.9 µM (inactive); in the assay with SK-MEL-5 it was 17.1 µM (inactive); with SK-OV-3, 32.4 µM (inactive). Further, the GI50 with SR is 3.05 µM (inactive).
Regarding `CN(N=O)C(=O)Nc1ccc(C(=O)O)cc1`, the GI50 with A498, in the assay with BT-549, with CCRF-CEM, in the assay with COLO 205, with HCC 2998 and in the assay with IGROV-1 was > 100 µM (inactive) in each case. The GI50 with KM12, in the assay with M14, in the assay with MCF7, in the assay on MDA-N, in the assay on NCI-H522 and in the assay with RPMI-8226 was > 100 µM (inactive) each time. The GI50 in the assay on SF-268, in the assay on SF-295, in the assay on SK-MEL-28, with SK-MEL-2, in the assay with SK-MEL-5 and with SK-OV-3 was > 100 µM (inactive) throughout. In the assay with SR, the GI50 was > 100 µM (inactive).
On to `CSc1c(C#N)c(N)nc2c(/N=N\c3ccc(Br)cc3)c(N)nn12`, for which the GI50 in the assay with A498 is 24 µM (inactive); in the assay with BT-549, 12.4 µM (inactive); with CCRF-CEM it was 3.12 µM (inactive); in the assay on COLO 205, 10 µM (inactive); with HCC 2998 it was 8.87 µM (inactive); in the assay on IGROV-1, 3.01 µM (inactive). For the same molecule, the GI50 in the assay on KM12 was 9.02 µM (inactive); with M14, 8.83 µM (inactive); in the assay with MCF7, 3.16 µM (inactive); with MDA-N it was 6.71 µM (inactive); in the assay on NCI-H522, 6.41 µM (inactive); in the assay on RPMI-8226, 9.84 µM (inactive). The GI50 in the assay on SF-268 is 5.82 µM (inactive); in the assay with SF-295, 8.63 µM (inactive); with SK-MEL-28, 10.7 µM (inactive); in the assay with SK-MEL-2 it was 4.48 µM (inactive); with SK-MEL-5, 18.1 µM (inactive); with SK-OV-3, 21.2 µM (inactive). Also, the GI50 with SR is 2.55 µM (inactive).
